Tested on: Hedgehog signal transduction system (Smo)
Test: Gli reporter luciferase assay in NIH-3T3/Gli reporter cells stimulated with mouse Shh-N end fragment
Assay type: cell-based
Conditions: NIH3T3; 1 μM compound; NIH-3T3/Gli reporter cells with mouse Shh-N end fragment culture supernatant, 48 hr; luciferase activity, control without compound as 100; read-out: inhibition rate (%) at 1 μM
Source text: Inhibition of the Hedgehog signal transduction system can be measured, for example, by quantifying a decrease in the expression level of a reporter gene connected to the downstream of the Gli binding site based on the fluorescence intensity according to the following Experimental Example 1. Alternatively, it can be measured by quantifying the expression of Gli-1 mRNA in a cell extract by quantitative PCR method and the like. A compound that inhibits Hedgehog signal targets Smo, which can be confirmed, for example, by binding fluorescence-labeled Cyclopamine and a test compound to cells expressing Smo, measuring the fluorescence level of the cell, and comparing the value with that without addition of a test compound to find a decrease.
Gli reporter plasmid was constructed by inserting 8×Gli-binding site and chicken δ-crystalline promoter into the upstream of luc+ of pGL3 (Promega).
prepared in reference to the base sequence described in GenBank accession No.; X02187, and chicken genome DNA (Clontech) as a template. PCR reaction was performed using Pfu Turbo (Stratagene) and following the attached protocol. The obtained 108 bp fragment was digested with restriction enzymes BglII and HindIII, and inserted into BglII-HindIII site of pGL3 to give plasmid pGL3/δ-cry promoter.
As 8× Gli-binding site, a sequence containing eight 9-bp Gli bound consensus sequences (GACCACCCA) described in Yoon et al., J. Biol. Chem., vol. 273, pages 3496-3501 (1998) was prepared from synthetic DNA. That is, two synthetic DNAs,
were heat treated at 95° C. for 2 minutes, and incubated at 37° C. for 1 hr for annealing to give a double stranded DNA of the above-mentioned two synthetic DNAs. The obtained double stranded DNA was digested with restriction enzymes BglII and KpnI, and the obtained DNA fragment was inserted into BglII-KpnI site of pGL3/δ-cry promoter to construct plasmid pGL3/δ-cry promoter, 8× Gli binding site, i.e., Gli reporter plasmid. 2. Construction of Plasmid for Expression of Mouse Shh-N End Fragment
As a material for construction of plasmid for Shh-N end fragment expression, mouse Shh cDNA was cloned at first.
The mouse Shh cDNA was cloned by Nested PCR method using mouse 11-day fetus cDNA (Clontech) as a template. The primer sequence was prepared in reference to the base sequence described in GenBank accession No.; NM_009170.
Using the mouse Shh cDNA sequence obtained as mentioned above as a template, a partial cDNA sequence wherein stop codon (TGA) was added to 3′-terminal of cDNA sequence encoding 1st to 198th amino acid sequence of mouse Shh was obtained by PCR method. As the primer set,
In the manner mentioned above, a plasmid for mouse Shh-N end fragment expression, pcDNA3.1/mShh-N, was constructed.
HEK293 cells were grown in D-MEM medium (Invitrogen) containing 10% fetal bovine serum in a 10 cm dish and pcDNA3.1/mShh-N was introduced into the cells using FuGENE6 (Roche Applied Science). Thereafter, the HEK293 cells were cultured in a carbon dioxide gas incubator at 37° C. for 24 hours, and the medium was exchanged with D-MEM medium (Invitrogen) containing 2% fetal bovine serum. After culturing for 48 hr, culture supernatant containing recombinant type mouse Shh-N end fragment was obtained by filtration using a filter ([…]).
Using D-MEM (Invitrogen) containing 10% fetal bovine serum, expression plasmid pcDNA3:1 and Gli reporter plasmid (pGL3/δ-cry promoter, 8× Gli binding site) produced by the method of Experimental Example 1 were introduced into NIH-3T3 cells grown in a 10 cm dish by the use of FuGENE6 (Roche Applied Science).
After culture for 24 hr, the cells were recovered, suspended in D-MEM medium containing 10% fetal bovine serum and supplemented with Geneticin (Life Technologies Oriental, Inc.) to a final concentration of 500 μg/ml, diluted to 10^4 cells/ml, plated on a 96 well plate, and cultured in a carbon dioxide gas incubator at 37° C. to give Geneticin resistant transformed cell line. […]

In order of falling inhibition at 1 µM:
1. CCc1nc2c(cc1NC(=O)c1nccs1)c(OCC(F)(F)F)c(C(=O)NC1CCN(C(=O)CO)CC1)n2C [Example 69, 6-ethyl-N-[1-(hydroxyacetyl)piperidin-4-yl]-1-methyl-5-[(1,3-thiazol-2-ylcarbonyl)amino]-3-(2,2,2-trifluoroethoxy)-1H-pyrrolo[2,3-b]pyridine-2-carboxamide]  99%
2. Cc1cc2c(cc1NC(=O)c1ccccc1)c(OCC(F)(F)F)c(C(=O)NC1CCN(C(=O)CO)CC1)n2C [Example 67, N-[1-(hydroxyacetyl)piperidin-4-yl]-1,6-dimethyl-5-[(phenylcarbonyl)amino]-3-(2,2,2-trifluoroethoxy)-1H-indole-2-carboxamide]  97%
3. CCc1cc2c(cc1NC(=O)c1ccccc1)c(OC(C)C)c(C(=O)NC1CCN(C(=O)CO)CC1)n2C [Example 71, 6-ethyl-N-[1-(hydroxyacetyl)piperidin-4-yl]-1-methyl-3-(1-methylethoxy)-5-[(phenylcarbonyl)amino]-1H-indole-2-carboxamide]  97%
4. CCc1nc2c(cc1NC(=O)c1sccc1Cl)c(OC(C)C)c(C(=O)NC1CCN(C(=O)CO)CC1)n2C [Example 63, 5-{[(3-chlorothiophen-2-yl)carbonyl]amino}-6-ethyl-N-[1-(hydroxyacetyl)piperidin-4-yl]-1-methyl-3-(1-methylethoxy)-1H-pyrrolo[2,3-b]pyridine-2-carboxamide]  96%
5. Cc1cc2sc(C(=O)NC3CCN(C(=O)CO)CC3)c(OCC(F)(F)F)c2cc1NC(=O)c1ccccc1 [Example 68, N-[1-(hydroxyacetyl)piperidin-4-yl]-6-methyl-5-[(phenylcarbonyl)amino]-3-(2,2,2-trifluoroethoxy)-1-benzothiophene-2-carboxamide]  96%
6. CCc1cc2c(nc1NC(=O)c1ccccc1)c(OCC(F)(F)F)c(C(=O)NC1CCN(C(=O)CO)CC1)n2C [Example 127, 6-ethyl-N-[1-(hydroxyacetyl)piperidin-4-yl]-1-methyl-5-[(phenylcarbonyl)amino]-3-(2,2,2-trifluoroethoxy)-1H-pyrrolo[3,2-b]pyridine-2-carboxamide]  96%
7. CCc1cc2c(nc1-c1ccccc1)c(OCC(F)(F)F)c(C(=O)NC1CCN(C(=O)CO)CC1)n2C [Example 128, 6-ethyl-N-[1-(hydroxyacetyl)piperidin-4-yl]-1-methyl-5-phenyl-3-(2,2,2-trifluoroethoxy)-1H-pyrrolo[3,2-b]pyridine-2-carboxamide]  94%
8. CCOc1c(C(=O)NC2CCN(C(=O)CO)CC2)n(C)c2cc(CC)c(NC(=O)c3ccccc3)nc12 [Example 129, 3-ethoxy-6-ethyl-N-[1-(hydroxyacetyl)piperidin-4-yl]-1-methyl-5-[(phenylcarbonyl)amino]-1H-pyrrolo[3,2-b]pyridine-2-carboxamide]  92%
9. CCc1cc2c(nc1-c1ccc(F)cc1)c(OC(C)C)c(C(=O)NC1CCN(C(=O)CO)CC1)n2C [Example 132, 6-ethyl-5-(4-fluorophenyl)-N-[1-(hydroxyacetyl)piperidin-4-yl]-1-methyl-3-(1-methylethoxy)-1H-pyrrolo[3,2-b]pyridine-2-carboxamide]  86%
10. CCc1cc2c(nc1NC(=O)c1ccccc1)c(OC(C)C)c(C(=O)NC1CCN(C(=O)CO)CC1)n2C [Example 130, 6-ethyl-N-[1-(hydroxyacetyl)piperidin-4-yl]-1-methyl-3-(1-methylethoxy)-5-[(phenylcarbonyl)amino]-1H-pyrrolo[3,2-b]pyridine-2-carboxamide]  84%
11. CCc1cc2c(nc1-c1ccccc1)c(OC(C)C)c(C(=O)NC1CCN(C(=O)CO)CC1)n2C [Example 131, 6-ethyl-N-[1-(hydroxyacetyl)piperidin-4-yl]-1-methyl-3-(1-methylethoxy)-5-phenyl-1H-pyrrolo[3,2-b]pyridine-2-carboxamide]  82%

Reference: patent US8486965B2, “Pyrrolo[2,3-b]pyridine derivative and use thereof for treatment of cancer” (Takeda Pharmaceutical Company Limited, priority 2009, dated 2013)
